Measured values: article PMC7435646, “Design, Synthesis and Bioactive Evaluation of Oxime Derivatives of Dehydrocholic Acid as Anti-Hepatitis B Virus Agents” (Molecules, 2020)

Columns and labels:
[1] = Cytotoxicity by MTT assay in HepG2.2.15 cells; assay type: cell-based; details: human, 50% cytotoxicity concentration in HepG 2.2.15 cells, mean ± S.D. (n = 3)
Experimental: (§1) HepG2.2.15 cells were kindly provided by the Chinese Academy of Medical Sciences (Beijing, China), derived from human hepatoma cell line G2. These cells were cultured in Dulbecco’s Modified Eagle’s Medium (DMEM), supplemented with 10% fetal bovine serum (FBS), 1.5 g/L of sodium bicarbonate, 10 mL/L of penicillin, and streptomycin, respectively, and 200 mg/L of G418 at 37 °C under 5% carbon dioxide in a 95–98% humidity. The compounds were diluted to the desired concentrations in culture medium. Before treated with various concentrations of compounds, cells were seeded at a density of 1 × 10^5 cells/mL in 96-well plates and incubated for 24 h at 37 °C. Every three days in a nine day period, supernatant of each well was replaced with compound-containing fresh medium.
The cytotoxicity activity of the synthesized compounds was determined by MTT assay. After refreshing the supernatant, 20 μL MTT (5 mg/mL) was added to each well, which was further cultured for 4 h at 37 °C. Then the supernatant of each well was carefully removed, formazan crystals were dissolved in […] of DMSO and the absorbance at 450 nm was recorded. Cytotoxicity of these compounds was expressed as the concentration of compound required to kill 50% (CC50) of the HepG2.2.15 cells.

HBeAg = test: Inhibition of HBeAg secretion (ELISA) in HepG2.2.15 cells; assay type: cell-based, hepatitis B virus (HBV); details: for IC50: Hepatitis B virus, HepG2.2.15, 216 h, read-out: HBeAg IC50; for HBeAg SI: SI (selectivity index) = CC50/IC50; for HBeAg IC50: ELISA, nine day treatment, mean ± S.D. (n = 3), '-' = inhibition ratio less than 50% in the test concentration range; for inhibition of HBV in vitro assay: in vitro assay (Table S1)
Experimental: HepG2.2.15 cells were kindly provided by the Chinese Academy of Medical Sciences (Beijing, China), derived from human hepatoma cell line G2. […] The compounds were diluted to the desired concentrations in culture medium. […] Every three days in a nine day period, supernatant of each well was replaced with compound-containing fresh medium.
(§2) The levels of HBeAg and HBsAg in the supernatant of the cells were measured using ELISA assay following the manufacturer’s protocol (Shanghai Kehua Bio-engineering Co., Ltd., Shanghai, China).

HBsAg = test: Inhibition of HBsAg secretion (ELISA) in HepG2.2.15 cells; assay type: cell-based, hepatitis B virus (HBV); details: for IC50: Hepatitis B virus, HepG2.2.15, 216 h, read-out: HBsAg IC50; for HBsAg SI: SI (selectivity index) = CC50/IC50
Experimental: as §1
as §2, with “China). The synthesized compounds were expressed as the concentration that achieved 50% inhibition (IC50) to the secretion of HBeAg and HBsAg.” for “China).”

[2] = HepG2.2.15 cells, result in words

Row | SMILES | CC50 at 9 days [1] [µM] | melting point [°C] | IC50 (HBeAg) [µM] | HBeAg SI (HBeAg) | HBeAg IC50 (HBeAg; HepG2.2.15 cells) | inhibition of HBV in vitro assay (HBeAg; result in words) | activity against the secretion of HBsAg (HBsAg; [2]) | activity against the secretion of HBeAg (HBeAg; [2]) | IC50 (HBsAg) [µM] | HBsAg SI (HBsAg)
1 | C[C@H](CCC(=O)OCc1ccc2c(c1)OCO2)[C@H]1CC[C@H]2[C@@H]3C(=O)CC4C/C(=N/O)CC[C@]4(C)[C@H]3CC(=O)[C@]12C (stereo partly drawn) [Compound 2b-1, 3,4-Methylenedioxybenzyl (E)-3-(hydroxyimino)-7,12-dioxocholanoate] | > 1000 | 182.5 to 184.5 | 96.6 ± 29 | 10.35 | – | – | – | – | – | –
2 | C[C@H](CCC(=O)OCc1ccc2c(c1)OCO2)[C@H]1CC[C@H]2[C@@H]3C(=O)CC4C/C(=N/OCc5ccccc5)CC[C@]4(C)[C@H]3CC(=O)[C@]12C (stereo partly drawn) [Compound 2b-2, 3,4-Methylenedioxybenzyl (E)-3-((benzyloxy)imino)-7,12-dioxocholanoate] | 728 ± 45.2 | 124.3 to 126.3 | – | – | - (The inhibition ratio less than 50% in the test concentration range) | – | – | – | – | –
3 | CC(CCC(=O)O)C1CCC2C3C(=O)CC4CC(=NOCc5ccccc5)CCC4(C)C3CC(=O)C12C (stereo not drawn) [Compound 0-2, (E)-3-((benzyloxy)imino)-7,12-dioxolcholanic acid] | 470 ± 6.35 | 198.5 to 200.5 | 119 ± 1.86 | 3.95 | – | – | – | – | – | –
4 | C[C@H](CCC(=O)O)[C@H]1CC[C@H]2[C@@H]3[C@H](O)C[C@@H]4C[C@H](O)CC[C@]4(C)[C@H]3C[C@H](O)[C@]12C [Cholic acid] | – | – | – | – | – | did not exhibit inhibition | – | – | – | –
5 | C[C@H](CCC(=O)O)[C@H]1CC[C@H]2[C@@H]3C(=O)C[C@@H]4CC(=O)CC[C@]4(C)[C@H]3CC(=O)[C@]12C [DHCA, Dehydrocholic acid] | > 1000 | – | – | – | - (The inhibition ratio less than 50% in the test concentration range) | did not exhibit inhibition | no activity | no activity | – | –
6 | CON=C1CCC2(C)C(CC(=O)C3C2CC(=O)C2(C)C(C(C)CCC(=O)O)CCC32)C1 (stereo not drawn) [Compound 0-3, (E)-3-(methoxyimino)-7,12-dioxolcholanic acid] | > 1000 | 197.2 to 199.2 | – | – | - (The inhibition ratio less than 50% in the test concentration range) | – | – | – | – | –
7 | C[C@H](CCC(=O)OCc1ccco1)[C@H]1CC[C@H]2[C@@H]3C(=O)CC4C/C(=N/OCc5ccccc5)CC[C@]4(C)[C@H]3CC(=O)[C@]12C (stereo partly drawn) [Compound 2c-2, Furan-2-ylmethyl (E)-3-((benzyloxy)imino)-7,12-dioxocholanoate] | 101 ± 10.7 | 131.5 to 133.5 | 151 ± 32.1 | 0.67 | – | – | – | – | 464 ± 20.1 | 0.22
8 | C[C@H](CCC(=O)OCc1ccccc1)[C@H]1CC[C@H]2[C@@H]3C(=O)CC4C/C(=N/OCc5ccccc5)CC[C@]4(C)[C@H]3CC(=O)[C@]12C (stereo partly drawn) [Compound 2a-2, Benzyl (E)-3-((benzyloxy)imino)-7,12-dioxocholanoate] | 211 ± 17.1 | 135.3 to 137.3 | 249 ± 47.6 | 0.85 | – | – | – | – | – | –
9 | CO/N=C1\CC[C@@]2(C)[C@H](CC(=O)[C@@H]3[C@@H]2CC(=O)[C@]2(C)[C@@H]([C@H](C)CCC(=O)OCc4ccccc4)CC[C@@H]32)C1 [Compound 2a-3, Benzyl (E)-3-(methoxyimino)-7,12-dioxolcholanoate] | 169 ± 5.75 | 132.6 to 134.6 | 188 ± 9.51 | 0.90 | – | – | – | – | – | –
10 | C[C@H](CCC(=O)OCc1ccccc1)[C@H]1CC[C@H]2[C@@H]3C(=O)CC4C/C(=N/O)CC[C@]4(C)[C@H]3CC(=O)[C@]12C (stereo partly drawn) [Compound 2a-1, Benzyl (E)-3-(hydroxyimino)-7,12-dioxocholanoate] | 378 ± 25.3 | 199.2 to 201.2 | 229 ± 12.8 | 1.65 | – | – | – | – | 630 ± 35 | 0.60
11 | C=C1[C@H](CO)[C@@H](O)C[C@@H]1n1cnc2c(=O)[nH]c(N)nc21 [ETV, Entecavir, reference compound] | 600 ± 23.4 | – | 247 ± 50 | – | – | – | – | – | 161 ± 35.9 | 3.72
12 | CC(CCC(=O)O)C1CCC2C3C(=O)CC4CC(=NO)CCC4(C)C3CC(=O)C12C (stereo not drawn) [Compound 0-1, (E)-3-(hydroxyimino)-7,12-dioxolcholanic acid] | > 1000 | 250.4 to 252.4 | – | – | - (The inhibition ratio less than 50% in the test concentration range) | – | – | – | – | –
13 | CO/N=C1\CC[C@@]2(C)C(CC(=O)[C@H]3[C@@H]4CC[C@H]([C@H](C)CCC(=O)OCc5ccco5)[C@@]4(C)C(=O)C[C@@H]32)C1 (stereo partly drawn) [Compound 2c-3, Furan-2-ylmethyl (E)-3-(methoxyimino)-7,12-dioxocholanoate] | 90.9 ± 15.6 | 122.3 to 124.3 | 105 ± 22.2 | 0.86 | – | – | – | – | 181 ± 52.8 | 0.50
14 | C[C@H](CCC(=O)OCc1ccco1)[C@H]1CC[C@H]2[C@@H]3C(=O)CC4C/C(=N/O)CC[C@]4(C)[C@H]3CC(=O)[C@]12C (stereo partly drawn) [Compound 2c-1, Furan-2-ylmethyl (E)-3-(hydroxyimino)-7,12-dioxocholanoate] | 155 ± 30.8 | 193.2 to 195.2 | 111 ± 28.3 | 1.40 | – | – | – | – | 300 ± 15.3 | 0.52
15 | CO/N=C1\CC[C@@]2(C)C(CC(=O)[C@H]3[C@@H]4CC[C@H]([C@H](C)CCC(=O)OCc5ccc6c(c5)OCO6)[C@@]4(C)C(=O)C[C@@H]32)C1 (stereo partly drawn) [Compound 2b-3, 3,4-Methylenedioxybenzyl (E)-3-(methoxyimino)-7,12-dioxocholanoate] | 545 ± 28.9 | 118.7 to 120.7 | 49.4 ± 12.8 | 11.03 | – | – | – | – | – | –
